For 14 molecules, IC50 results are on record in ChEMBL document CHEMBL2021834, “Novel sulfonylurea derivatives as H3 receptor antagonists. Preliminary SAR studies” (Eur J Med Chem, 2012).

The target of the test is Voltage-gated inwardly rectifying potassium channel KCNH2 (Homo sapiens, UniProt Q12809).

pIC50: −log10 of the molar value.

Voltage-gated inwardly rectifying potassium channel KCNH2, sequence (Q12809 whole entry): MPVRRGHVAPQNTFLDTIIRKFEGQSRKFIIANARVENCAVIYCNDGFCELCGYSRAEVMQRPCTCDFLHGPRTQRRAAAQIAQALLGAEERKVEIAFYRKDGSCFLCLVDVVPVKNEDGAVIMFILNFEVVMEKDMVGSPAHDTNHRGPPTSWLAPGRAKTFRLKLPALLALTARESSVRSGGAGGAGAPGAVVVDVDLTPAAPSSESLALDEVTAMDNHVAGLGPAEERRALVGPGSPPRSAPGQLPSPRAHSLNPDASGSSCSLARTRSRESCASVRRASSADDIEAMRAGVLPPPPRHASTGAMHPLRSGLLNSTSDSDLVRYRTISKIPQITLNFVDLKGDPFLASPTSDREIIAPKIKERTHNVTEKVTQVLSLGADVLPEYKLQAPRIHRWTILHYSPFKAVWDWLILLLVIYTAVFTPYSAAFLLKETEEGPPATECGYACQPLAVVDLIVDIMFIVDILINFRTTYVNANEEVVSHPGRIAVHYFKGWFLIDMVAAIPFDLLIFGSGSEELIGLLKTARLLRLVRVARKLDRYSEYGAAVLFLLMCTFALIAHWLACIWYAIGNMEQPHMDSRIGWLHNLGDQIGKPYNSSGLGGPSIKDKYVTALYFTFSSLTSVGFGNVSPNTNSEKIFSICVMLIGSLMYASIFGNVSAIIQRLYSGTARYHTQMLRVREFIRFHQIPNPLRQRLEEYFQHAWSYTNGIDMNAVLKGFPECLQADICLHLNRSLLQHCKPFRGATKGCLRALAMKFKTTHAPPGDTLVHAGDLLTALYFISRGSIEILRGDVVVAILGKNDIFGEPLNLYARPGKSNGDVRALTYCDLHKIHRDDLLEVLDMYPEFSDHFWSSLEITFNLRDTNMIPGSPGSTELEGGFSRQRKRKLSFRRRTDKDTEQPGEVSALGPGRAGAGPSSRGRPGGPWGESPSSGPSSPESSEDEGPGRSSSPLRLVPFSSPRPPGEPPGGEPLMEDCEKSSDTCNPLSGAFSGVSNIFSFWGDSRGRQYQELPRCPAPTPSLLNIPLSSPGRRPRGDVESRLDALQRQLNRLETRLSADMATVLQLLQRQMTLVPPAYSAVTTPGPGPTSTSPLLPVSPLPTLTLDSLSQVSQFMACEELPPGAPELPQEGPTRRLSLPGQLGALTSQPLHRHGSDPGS
Description: Displacement of [3H] dofetilide from human ERG channel expressed in HEK293 cells after 45 mins by scintillation counting method

In general, pIC50 refers to the IC50 on a negative log10 scale, so that one unit is a factor of ten. `O=C(Nc1ccc(C(F)(F)F)cc1)NS(=O)(=O)c1ccc(OCCN2CCCC2)cc1` showed a pIC50 of less than 4.00. The same measure for `O=C(Nc1cccc2ccccc12)NS(=O)(=O)c1ccc(OCCCN2CCCC2)cc1`: less than 4.00; for `CCOC(=O)C1CCN(CCOc2ccc(S(=O)(=O)NC(=O)Nc3ccccc3)cc2)CC1`: less than 4.00. The molecule `O=C(Nc1cc(Cl)ccc1Cl)NS(=O)(=O)c1ccc(OCCCCN2CCCCC2)cc1` showed a pIC50 of less than 4.00.

With `CC(C)NC(=O)NS(=O)(=O)c1ccc(OCCN2CCCC2)cc1`, the pIC50 is less than 4.00. For `O=C(Nc1ccccc1C(F)(F)F)NS(=O)(=O)c1ccc(OCCCN2CCCCC2)cc1`, the pIC50 was less than 4.00.

With `COc1ccc(NC(=O)NS(=O)(=O)c2ccc(OCCCN3CCCCC3)cc2)cc1`, the pIC50 is less than 4.00. With `O=C(Nc1ccccc1)NS(=O)(=O)c1ccc(OCCCN2CCCCC2)cc1`, the pIC50 was less than 4.00. The same measure for `CCOC(=O)C1CCN(CCCOc2ccc(S(N)(=O)=O)cc2)CC1`: 4.12; for `CCOC(=O)C1CCN(CCCCOc2ccc(S(=O)(=O)NC(=O)Nc3ccccc3)cc2)CC1`: less than 4.00. In the case of `O=C(Nc1ccc(C(F)(F)F)cc1)NS(=O)(=O)c1ccc(OCCCCN2CCCC2)cc1` it was 4.31; in that of `CCOC(=O)C1CCN(CCCCOc2ccc(S(N)(=O)=O)cc2)CC1`, 4.73; in that of `Cc1ccc(NC(=O)NS(=O)(=O)c2ccc(OCCCN3CCCCC3)cc2)cc1`, less than 4.00.

`O=C(Nc1ccc(C(F)(F)F)cc1)NS(=O)(=O)c1ccc(OCCN2CCCCC2)cc1` gave a pIC50 of less than 4.00.
